Measured values: patent US20230027066A1 (Urovant Sciences GmbH, priority 2019, published 2023)

Test system: men and women with overactive bladder
Assay: Phase 3 study of vibegron 75 mg vs placebo and tolterodine ER 4 mg, 12 weeks, efficacy (voiding and urine volume diary)
Type: in vivo, human
Conditions: for Patients with at Least 75% Reduction in Total Incontinence, Adjusted (%) / Patients with at Least 75% Reduction in Total Incontinence, Adjusted n / Patients with at Least 75% Reduction in Total Incontinence, Unadjusted (%) / Patients with at Least 75% Reduction in Total Incontinence, Unadjusted n / Total Incontinence 75% responders, Active - Placebo CMH Difference: FAS-I
Description: Enrollment of patients included individuals with OAB Wet (those with UUI, the involuntary loss of urine accompanied by urgency) and OAB Dry (those without UUI). A total of 1,518 patients were randomized across 215 study sites into one of three groups for a 12-week treatment period.
The study consisted of a Screening Period (1 to 5 weeks), a single-blind Run-in Period (2 weeks), a randomized double-blind Treatment Period (12 weeks), and a Follow-up Period (4 weeks).
Tolterodine ER 4 mg was the active control. […] Between the Baseline and Week 12 Visits, patients had study assessments at Week 4 and Week 8.
The Patient Voiding Diary was used by participants (via the eDiary or paper Diary) to record the frequency of daily OAB symptoms including all micturitions, urgency, incontinence, and main reason for incontinence by selecting the respective box for each symptom occurring during the course of a given day and night.
Urine volume data were collected separately by patients using the Urine Volume component of the eDiary, or the paper Urine Volume Chart. The Urine Volume Chart is a tool used in clinical practice and clinical investigation to assess voiding functions over a 24-hour period and is regarded as a useful instrument in the investigation of patients with voiding symptoms. Urine volume may be collected during any one (1) of the 7 Diary Days prior to the visit, and it should be recorded for ˜24 hours starting from the time the patient gets up for the day and continues until the time the patient gets up for the day on the next day.
For the purpose of this study, the number of micturitions was defined as the number of times a patient has voided in the toilet as indicated on the Patient Voiding Diary. Average daily micturitions were calculated using the daily entries in the Patient Voiding Diary, which was completed over the 7 days prior to each study visit. Average daily number of micturitions were calculated as the total number of micturitions that occurred on a Complete Diary Day divided by the number of Complete Diary Days in the Patient Voiding Diary. A complete diary day required confirmation by the patient in the Patient Voiding Diary that all voids and leakages had been recorded for the diary day. Baseline was defined as the average number of micturitions occurring during the last evaluable diary prior to the Baseline Visit.
The number of UUI episodes was defined as the number of times a patient had checked “urge” as the reason for accidental urine leakage. Average daily UUI episodes at each study visit were calculated in the same manner as described above for the micturition endpoint. The UUI endpoint were analyzed using only OAB Wet patients.
For the analysis of the co-primary endpoints (change from baseline in average number of daily micturitions at Week 12 and change from baseline in average number of daily urge urinary incontinence episodes at Week 12, and placebo adjustment of each), a mixed model for repeated measure (MMRM) with restricted maximum likelihood estimation was used. This model corrects for dropout and accounts for the fact that measurements taken on the same patient over time tend to be correlated by using all available information on patients within the same covariate set to derive an estimate of the treatment effect for a dropout-free population. The analysis model for each efficacy endpoint includes terms for treatment, visit, OAB Type (Wet vs Dry), Sex (Female vs Male), Region (US vs Rest of World), baseline score, and interaction of visit by treatment.
Primary inferences were drawn from treatment differences for the changes from baseline derived from the MMRM models at Week 12. As part of secondary objectives, the treatment differences for each post baseline visit were also derived using the same MMRM model. […]

[1] = Week 12, events of Events/Censored
[2] = Week 12, subpopulation Age ≥65 years
[3] = vibegron 75 mg or tolterodine ER 4 mg
[4] = vibegron 75 mg or tolterodine ER 4 mg once daily
[5] = vibegron 75 mg or tolterodine ER 4 mg once daily, OAB Wet
[6] = vibegron 75 mg or tolterodine ER 4 mg, OAB Wet

In the case of Cc1ccc(O)c([C@H](CCN(C(C)C)C(C)C)c2ccccc2)c1 [Tolterodine ER, tolterodine, reference compound], the “Micturitions, Week 12 LS Mean Change from Baseline (Placebo-Adjusted)” value (Week 12, co-primary endpoint) is reported as −0.3, the “UUI Episodes, Week 12 LS Mean Change from Baseline (Placebo-Adjusted)” value (Week 12, co-primary endpoint) is reported as −0.4 and the “First 50% Reduction in Urgency Episodes, Events” value [1] is reported as 164/253. For the same molecule, the “First 100% Reduction in UUI Episodes, Events” value [1] was 74/245, the “Total Incontinence Episodes, Week 12 LS Mean Change from Baseline (Placebo-Adjusted)” value (Week 12, secondary endpoint) was −0.5 and the “Urgency Episodes, Week 12 LS Mean Change from Baseline (Placebo-Adjusted)” value (Week 12, secondary endpoint) was −0.4. For the same molecule, the “Micturitions, change at Week 12, mean (SD)” value [2] was −1.48 (2.15), the “UUI Episodes, change at Week 12, mean (SD)” value [2] was −1.80 (2.41) and the “Daily Urgency, change at Week 12” value (Week 12, subpopulation Age ≥65 years, posthoc analysis) was −2.1. For the same molecule, the “Micturitions: Week 12 CFB Mean (descriptive statistics)” value (Week 12, ≥65 yrs) was −1.48, the “Patients with at Least 75% Reduction in Total Incontinence, Adjusted (%)” value (baseline to Week 2) was 16.5% and the “Patients with at Least 75% Reduction in Total Incontinence, Adjusted n” value (baseline to Week 2) was 53. The “Patients with at Least 75% Reduction in Total Incontinence, Unadjusted (%)” value (baseline to Week 2) was 18.2%, the “Patients with at Least 75% Reduction in Total Incontinence, Unadjusted n” value (baseline to Week 2) was 58 and the “Total Incontinence 75% responders, Active - Placebo CMH Difference” value (baseline to Week 2) was 3.6. The “Patients with at Least 75% Reduction in Total Incontinence, Adjusted (%)” value (baseline to Week 4) was 23.5%, the “Patients with at Least 75% Reduction in Total Incontinence, Adjusted n” value (baseline to Week 4) was 75 and the “Patients with at Least 75% Reduction in Total Incontinence, Unadjusted (%)” value (baseline to Week 4) was 28.2%. For the same molecule, the “Patients with at Least 75% Reduction in Total Incontinence, Unadjusted n” value (baseline to Week 4) was 90, the “Total Incontinence 75% responders, Active - Placebo CMH Difference” value (baseline to Week 4) was 3.7 and the “Patients with at Least 75% Reduction in Total Incontinence, Adjusted (%)” value (baseline to Week 8) was 32.5%. The “Patients with at Least 75% Reduction in Total Incontinence, Adjusted n” value (baseline to Week 8) was 104, the “Patients with at Least 75% Reduction in Total Incontinence, Unadjusted (%)” value (baseline to Week 8) was 36.4% and the “Patients with at Least 75% Reduction in Total Incontinence, Unadjusted n” value (baseline to Week 8) was 116. The “Total Incontinence 75% responders, Active - Placebo CMH Difference” value (baseline to Week 8) was 5.1, the “Patients with at Least 75% Reduction in Total Incontinence, Adjusted (%)” value (baseline to Week 12) was 39.9% and the “Patients with at Least 75% Reduction in Total Incontinence, Adjusted n” value (baseline to Week 12) was 127. For the same molecule, the “Patients with at Least 75% Reduction in Total Incontinence, Unadjusted (%)” value (baseline to Week 12) was 45.1%, the “Patients with at Least 75% Reduction in Total Incontinence, Unadjusted n” value (baseline to Week 12) was 144 and the “Total Incontinence 75% responders, Active - Placebo CMH Difference” value (baseline to Week 12) was 8.4. The “UUI, Week 12 LS mean change from baseline (placebo adjusted) (95% CI)” value (from here on “UUI, Week 12 LS mean change … (95% CI)”) (subgroup Age <65 years, vibegron 75 mg or tolterodine ER 4 mg) was −0.2 (−0.6 to 0.2), the “UUI, Week 12 LS mean change … (95% CI)” value (subgroup Age ≥65 years, vibegron 75 mg or tolterodine ER 4 mg) was −0.6 (−1.1 to −0.1) and the “UUI, Week 12 LS mean change … (95% CI)” value (subgroup Age ≥75 years (posthoc analysis), vibegron 75 mg or tolterodine ER 4 mg) was −1.6 (−2.5 to −0.7). The “UUI, Week 12 LS mean change … (95% CI)” value (subgroup Females, vibegron 75 mg or tolterodine ER 4 mg) was −0.4 (−0.7 to −0.1), the “UUI, Week 12 LS mean change … (95% CI)” value (subgroup Males, vibegron 75 mg or tolterodine ER 4 mg) was −0.5 (−1.4 to 0.4) and the “UUI, Week 12 LS mean change … (95% CI)” value (subgroup Non-White, vibegron 75 mg or tolterodine ER 4 mg) was 0.1 (−0.6 to 0.7). For the same molecule, the “UUI, Week 12 LS mean change … (95% CI)” value (subgroup Region: Non-US, vibegron 75 mg or tolterodine ER 4 mg) was −0.6 (−1.5 to 0.2), the “UUI, Week 12 LS mean change … (95% CI)” value (subgroup Region: US, vibegron 75 mg or tolterodine ER 4 mg) was −0.3 (−0.7 to 0.0) and the “UUI, Week 12 LS mean change … (95% CI)” value (subgroup White, vibegron 75 mg or tolterodine ER 4 mg) was −0.5 (−0.8 to −0.2). The “average volume voided, placebo-adjusted mean change from baseline, week 12” value [3] was 13.3 mL, the “placebo-adjusted mean total daily incontinence episodes, week 12” value [3] was −0.5 episodes and the “proportion of patients (UUI responders) with 75% or more reduction in daily UUI episodes, week 12” value [3] was 42.2%. For the same molecule, the “Micturitions, active-placebo LS mean difference, Week 2” value [4] was −0.3, the “Micturitions, active-placebo LS mean difference, Week 4” value [4] was −0.4 and the “Micturitions, active-placebo LS mean difference, Week 8” value [4] was −0.4. The “Micturitions, active-placebo LS mean difference, Week 12” value [4] was −0.3, the “Micturitions, average daily number, Week 2 mean” value [4] was 10.40 and the “Micturitions, average daily number, Week 4 mean” value [4] was 10.10. For the same molecule, the “Micturitions, average daily number, Week 8 mean” value [4] was 9.80, the “Micturitions, average daily number, Week 12 mean” value [4] was 9.58 and the “Micturitions, change from baseline LS mean, Week 2” value [4] was −0.6. For the same molecule, the “Micturitions, change from baseline LS mean, Week 4” value [4] was −0.9, the “Micturitions, change from baseline LS mean, Week 8” value [4] was −1.2 and the “Micturitions, change from baseline LS mean, Week 12” value [4] was −1.6. The “UUI episodes, active-placebo LS mean difference, Week 2” value [5] was −0.4, the “UUI episodes, active-placebo LS mean difference, Week 4” value [5] was −0.4 and the “UUI episodes, active-placebo LS mean difference, Week 8” value [5] was −0.4. For the same molecule, the “UUI episodes, average daily number, Week 2 mean” value [5] was 2.24, the “UUI episodes, average daily number, Week 4 mean” value [5] was 2.06 and the “UUI episodes, average daily number, Week 8 mean” value [5] was 1.74. For the same molecule, the “UUI episodes, average daily number, Week 12 mean” value [5] was 1.55, the “UUI episodes, change from baseline LS mean, Week 2” value [5] was −1.2 and the “UUI episodes, change from baseline LS mean, Week 4” value [5] was −1.4. For the same molecule, the “UUI episodes, change from baseline LS mean, Week 8” value [5] was −1.6, the “UUI episodes, change from baseline LS mean, Week 12” value [5] was −1.8 and the “Time to first 75% reduction in UUI episodes, hazard ratio compared to placebo (proportional hazards)” value (vibegron 75 mg or tolterodine ER 4 mg, Cox model with sex as covariate) was 1.276. The “Estimated incidence of subjects with 75% decrease from baseline in UUI episodes, Week 2” value [6] was 18.8, the “Estimated incidence of subjects with 75% decrease from baseline in UUI episodes, Week 4” value [6] was 20.7 and the “Estimated incidence of subjects with 75% decrease from baseline in UUI episodes, Week 8” value [6] was 34.3. For the same molecule, the “Estimated incidence of subjects with 75% decrease from baseline in UUI episodes, Week 12” value [6] was 45.7, the “First 75% reduction in UUI episodes, Events/Censored, Week 2” value [6] was 60/259 and the “First 75% reduction in UUI episodes, Events/Censored, Week 4” value [6] was 66/253. For the same molecule, the “First 75% reduction in UUI episodes, Events/Censored, Week 8” value [6] was 107/212, the “First 75% reduction in UUI episodes, Events/Censored, Week 12” value [6] was 140/179 and the “Overall time to first 75% decrease in UUI episodes, 25th percentile” value [6] was 4.1 weeks. The “Overall time to first 75% decrease in UUI episodes, 75th percentile” value [6] was 14.2 weeks, the “Overall time to first 75% decrease in UUI episodes, median (95% CI)” value [6] was 12.1 (8.6 to 12.3) weeks and the “Time to first 75% decrease in UUI episodes, Events/Censored (overall)” value [6] was 166/153.
